Measurements: US4725592A, “1-Acyloxyalkyl esters of cephalosporin” (Takeda Chemical Industries, Ltd., priority 1983, dated 1988)
Read-outs that look alike come from different tables or passages of the source.

Legend:
[1] = parameters: species or system mice; details: mouse, in vivo; for Bioavailability / Plasma level of non-ester (Compound [II]) 2 hr / AUC: 120 min; for Plasma level of non-ester (Compound [II]) 0.25 hr / Plasma level of non-ester (Compound [II]) 0.5 hr / Plasma level of non-ester (Compound [II]) 1.0 hr / Plasma level of non-ester (Compound [II]) 2 hr / AUC: po, 100 mg/kg; for Plasma level of non-ester (Compound [II]) 0.25 hr: 15 min; for Plasma level of non-ester (Compound [II]) 0.5 hr: 30 min; for Plasma level of non-ester (Compound [II]) 1.0 hr: 60 min
Procedure: The compounds of Examples (compound Nos. 1 and 2) and, as a control compound, the pivaloyloxymethyl ester of compound [II] (hereinafter referred to briefly as compound A) are administered orally to mice, each compound to one animal, in the dose of 100 mg/kg in terms of the non-ester, i.e. compound [II]. […] As a control, compound [II] is subcutaneously administered to a mouse and the AUC value is calculated as above.

Staphylococcus aureus = details: Antimicrobial Agent and Chemotherapy 14, 557-568 (1978); cited from earlier work
Escherichia coli = details: Antimicrobial Agent and Chemotherapy 14, 557-568 (1978); cited from earlier work
Klebsiella pneumoniae = details: Antimicrobial Agent and Chemotherapy 14, 557-568 (1978); cited from earlier work
Proteus vulgaris = details: Antimicrobial Agent and Chemotherapy 14, 557-568 (1978); cited from earlier work
Proteus mirabilis = details: Antimicrobial Agent and Chemotherapy 14, 557-568 (1978); cited from earlier work
Proteus morganii = details: Antimicrobial Agent and Chemotherapy 14, 557-568 (1978); cited from earlier work

Row | Bioavailability [1] [%] | Plasma level of non-ester (Compound [II]) 0.25 hr [1] [ng/mL] | Plasma level of non-ester (Compound [II]) 0.5 hr [1] [ng/mL] | Plasma level of non-ester (Compound [II]) 1.0 hr [1] [ng/mL] | Plasma level of non-ester (Compound [II]) 2 hr [1] [ng/mL] | Bioavailability ([1]; sc) [%] | AUC [1] [ng·h/mL] | Compound | antibacterial activity (Staphylococcus aureus) | antibacterial activity (Escherichia coli) | antibacterial activity (Klebsiella pneumoniae) | antibacterial activity (Proteus vulgaris) | antibacterial activity (Proteus mirabilis) | antibacterial activity (Proteus morganii)
1 | 41.8 | 21000 | 16200 | 6100 | 600 |  |  | CN(C)CCn1nnnc1SCC1=C(C(=O)OCOC(=O)C(C)(C)C)N2C(=O)[C@@H](NC(=O)Cc3csc(N)n3)[C@H]2SC1 [A, pivaloyloxymethyl ester of compound [II]] |  |  |  |  |  | 
2 |  |  |  |  |  | 100 |  | CN(C)CCn1nnnc1SCC1=C(C(=O)O)N2C(=O)[C@@H](NC(=O)Cc3csc(N)n3)[C@H]2SC1 [Compound [II], 7β-[2-(2-aminothiazol-4-yl)acetamido]-3-[[[1-(2-dimethylaminoethyl)-1H-tetrazol-5-yl]thio]methyl]ceph-3-em-4-carboxylic acid] | potent antibacterial activity | potent antibacterial activity | potent antibacterial activity | potent antibacterial activity | potent antibacterial activity | potent antibacterial activity
3 | 91.0 | 55400 | 37000 | 8460 | 2500 |  | 35300 | CC(C)CC(=O)OC(OC(=O)C1=C(CSc2nnnn2CCN(C)C)CS[C@@H]2[C@H](NC(=O)Cc3csc(N)n3)C(=O)N12)C(C)C.Cl.Cl (stereo partly drawn) [Compound No. 1, 1-(3-Methylbutyryloxy)-2-methylpropyl 7β-[2-(2-aminothiazol-4-yl)acetamido]-3-[[[1-(2-dimethylaminoethyl)-1H-tetrazol-5-yl]thio]methyl]ceph-3-em-4-carboxylate dihydrochloride] |  |  |  |  |  | 
4 | 81.4 | 74300 | 21600 | 5360 | 1800 |  | 31600 | CCCC(OC(=O)CC(C)C)OC(=O)C1=C(CSc2nnnn2CCN(C)C)CS[C@@H]2[C@H](NC(=O)Cc3csc(N)n3)C(=O)N12.Cl.Cl (stereo partly drawn) [Compound No. 2, 1-(3-Methylbutyryloxy)butyl 7β-[2-(2-aminothiazol-4-yl)acetamido]-3-[[[1-(2-dimethylaminoethyl) -1H-tetrazol-5-yl]thio]methyl]ceph-3-em-4-carboxylate dihydrochloride] |  |  |  |  |  | 
